This passage reports GI50 results from ChEMBL document CHEMBL4382204 (Eur J Med Chem, 2018).

Usually GI50 stands for the concentration that inhibits growth by half.

Assay [1] has as its target Epithelial discoidin domain-containing receptor 1 (Homo sapiens) (UniProt Q08345). As to the kind of experiment: Inhibition of wild type C-terminal FLAG-tagged human TEL fused DDR1 (unknown origin) transfected in mouse BAF3 cells assessed as growth inhibition after 72 hrs by CCK8 assay. In kind it is cell-based.
Assay [2] relates to Bcr/Abl fusion protein (Homo sapiens), P00519+P11274 [Y253F]. The settings on record: BaF3.

Sequence of Epithelial discoidin domain-containing receptor 1 (Homo sapiens) (Q08345 whole entry, the tested form may be a part): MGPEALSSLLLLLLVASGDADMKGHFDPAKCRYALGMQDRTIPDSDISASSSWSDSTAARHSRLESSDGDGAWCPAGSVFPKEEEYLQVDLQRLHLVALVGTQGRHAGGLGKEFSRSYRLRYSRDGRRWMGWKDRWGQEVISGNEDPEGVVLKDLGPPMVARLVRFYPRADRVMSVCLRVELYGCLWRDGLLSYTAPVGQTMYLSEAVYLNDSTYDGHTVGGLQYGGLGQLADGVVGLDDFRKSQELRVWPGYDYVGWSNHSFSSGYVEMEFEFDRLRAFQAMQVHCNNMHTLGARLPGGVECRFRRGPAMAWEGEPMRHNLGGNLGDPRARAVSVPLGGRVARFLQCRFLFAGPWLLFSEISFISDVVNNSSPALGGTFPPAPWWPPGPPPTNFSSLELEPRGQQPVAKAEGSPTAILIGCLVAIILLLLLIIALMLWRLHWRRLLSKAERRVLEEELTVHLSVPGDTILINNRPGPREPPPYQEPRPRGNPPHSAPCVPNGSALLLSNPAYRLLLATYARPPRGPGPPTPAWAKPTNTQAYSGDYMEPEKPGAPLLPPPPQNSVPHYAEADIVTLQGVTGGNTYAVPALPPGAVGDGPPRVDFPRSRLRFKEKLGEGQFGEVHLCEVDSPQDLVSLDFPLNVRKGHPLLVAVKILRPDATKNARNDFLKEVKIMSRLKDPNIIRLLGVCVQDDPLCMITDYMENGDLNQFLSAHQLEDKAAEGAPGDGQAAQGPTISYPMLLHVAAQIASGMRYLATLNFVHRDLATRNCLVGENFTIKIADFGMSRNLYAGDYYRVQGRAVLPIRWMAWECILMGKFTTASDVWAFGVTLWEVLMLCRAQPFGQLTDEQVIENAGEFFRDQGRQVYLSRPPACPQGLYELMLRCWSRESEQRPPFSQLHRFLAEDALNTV

For `CN1CCN(Cc2ccc(NC(=O)CCSc3ccc4c(/C=C/c5ccccn5)n[nH]c4c3)cc2C(F)(F)F)CC1`, the figures for the GI50 in assay [1] and in assay [2] were 1360 nM and 180 nM, respectively.
